Source: PMC7377239, “Cardiovascular Effects of Polychlorinated Biphenyls and Their Major Metabolites” (Environmental Health Perspectives, 2020)
Structures can show the parent of a compound that is named as a salt. Where two headings read alike, the source gives them in different places.

Tests used:
[1] = tested on: iCell cardiomyocytes (human iPSC-derived cardiomyocytes); test: High-content imaging of cytotoxicity and mitochondrial integrity in iPSC-CMs; assay type: cell-based; details: Homo sapiens; for viability at 0.01 µM / activity at 0.01 µM / viability at 0.1 µM / activity at 0.1 µM / viability at 1 µM / activity at 1 µM / viability at 10 µM / activity at 10 µM / viability at 100 µM / activity at 100 µM: Cardiomyocyte, 0.00 µM = 100.00; for viability at 0.1 µM / activity at 0.1 µM: 0.10 µM; for minimal effective concentration: iPSC-CM
Summary of the method: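 This assay measured cytotoxicity and mitochondrial integrity in iPSC cardiomyocytes held in 40μL maintenance medium. After compound exposure, a 2× staining solution with Hoechst 33342 (4μg/mL) and MitoTracker™ Orange (0.4μM) was applied for 15 min at 37°C. Cells were washed, fixed with 3.7% formaldehyde, imaged on DAPI and Cy3 channels, and scored in MetaXpress®.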

HUVECs = test: High-content imaging cytotoxicity in HUVECs, 24 h; assay type: cell-based, human; details: Homo sapiens, HUVEC, 24 h, HUVECs; for viability at 0.01 µM / activity at 0.01 µM / viability at 0.1 µM / activity at 0.1 µM / viability at 1 µM / activity at 1 µM / viability at 10 µM / activity at 10 µM / viability at 100 µM / activity at 100 µM: 0.00 µM = 100.00; for viability at 0.1 µM / activity at 0.1 µM: 0.10 µM; for minimal effective concentration: top concentration 100.00 µM
Summary of the method: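 Point-of-departure values come from four-parameter logistic fits of vehicle-normalized (0.5% DMSO) imaging readouts, cutoff one SD of vehicle means, 100μM where no concentration–response. Cells: HUVEC monolayers, passages 1–5, treated 24 h at 37°C, 5% CO2, then Hoechst 33342/MitoTracker Orange/calcein AM stained, imaged at 10×.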

[2] = 24 hr, read-out: huvec.cyto.24hr
[3] = 24 hr, read-out: huvec.mito.24hr
[4] = 24 hr, read-out: huvec.mitoint.24hr
[5] = 24 hr, read-out: huvec.nma.24hr
[6] = 24 hrs, read-out: huvec.tc.24hrs

O=S(=O)(O)Oc1cccc(-c2ccc(Cl)cc2)c1 [3'-yl PCB 3 sulfate]
viability at 0.01 µM ([1]; 1.5 h, read-out: cm.cam.90min): 99.5%
activity at 0.01 µM ([1]; 1.5 h, read-out: cm.mii.90min): 98.4%
activity at 0.01 µM ([1]; 1.5 h, read-out: cm.mito.90min): 99.8%
viability at 0.01 µM ([1]; 1.5 h, read-out: cm.tc.90min): 99.9%
viability at 0.1 µM ([1]; 1.5 h, read-out: cm.cam.90min): 98.2%
activity at 0.1 µM ([1]; 1.5 h, read-out: cm.mii.90min): 97.1%
activity at 0.1 µM ([1]; 1.5 h, read-out: cm.mito.90min): 98.3%
viability at 0.1 µM ([1]; 1.5 h, read-out: cm.tc.90min): 98.4%
viability at 1 µM ([1]; 1.5 h, read-out: cm.cam.90min): 102%
activity at 1 µM ([1]; 1.5 h, read-out: cm.mii.90min): 99.8%
activity at 1 µM ([1]; 1.5 h, read-out: cm.mito.90min): 102%
viability at 1 µM ([1]; 1.5 h, read-out: cm.tc.90min): 102%
viability at 10 µM ([1]; 1.5 h, read-out: cm.cam.90min): 95.4%
activity at 10 µM ([1]; 1.5 h, read-out: cm.mii.90min): 104%
activity at 10 µM ([1]; 1.5 h, read-out: cm.mito.90min): 95.4%
viability at 10 µM ([1]; 1.5 h, read-out: cm.tc.90min): 95.3%
viability at 100 µM ([1]; 1.5 h, read-out: cm.cam.90min): 99%
activity at 100 µM ([1]; 1.5 h, read-out: cm.mii.90min): 91.3%
activity at 100 µM ([1]; 1.5 h, read-out: cm.mito.90min): 99.3%
viability at 100 µM ([1]; 1.5 h, read-out: cm.tc.90min): 99.3%
viability at 0.01 µM ([1]; 24 h, read-out: cm.cam.24hrs): 97.1%
activity at 0.01 µM ([1]; 24 h, read-out: cm.mii.24hrs): 93.8%
activity at 0.01 µM ([1]; 24 h, read-out: cm.mito.24hrs): 95.4%
viability at 0.01 µM ([1]; 24 h, read-out: cm.tc.24hrs): 98%
viability at 0.1 µM ([1]; 24 h, read-out: cm.cam.24hrs): 105%
activity at 0.1 µM ([1]; 24 h, read-out: cm.mii.24hrs): 89.9%
activity at 0.1 µM ([1]; 24 h, read-out: cm.mito.24hrs): 105%
viability at 0.1 µM ([1]; 24 h, read-out: cm.tc.24hrs): 105%
viability at 1 µM ([1]; 24 h, read-out: cm.cam.24hrs): 101%
activity at 1 µM ([1]; 24 h, read-out: cm.mii.24hrs): 100%
activity at 1 µM ([1]; 24 h, read-out: cm.mito.24hrs): 99.9%
viability at 1 µM ([1]; 24 h, read-out: cm.tc.24hrs): 102%
viability at 10 µM ([1]; 24 h, read-out: cm.cam.24hrs): 103%
activity at 10 µM ([1]; 24 h, read-out: cm.mii.24hrs): 79.2%
activity at 10 µM ([1]; 24 h, read-out: cm.mito.24hrs): 104%
viability at 10 µM ([1]; 24 h, read-out: cm.tc.24hrs): 103%
viability at 100 µM ([1]; 24 h, read-out: cm.cam.24hrs): 97%
activity at 100 µM ([1]; 24 h, read-out: cm.mii.24hrs): 88.7%
activity at 100 µM ([1]; 24 h, read-out: cm.mito.24hrs): 97.8%
viability at 100 µM ([1]; 24 h, read-out: cm.tc.24hrs): 97.2%
minimal effective concentration ([1]; 1.5 h, read-out: cm.cam.90min POD): 100 µM
minimal effective concentration ([1]; 1.5 h, read-out: cm.mii.90min POD): 89.9 µM
minimal effective concentration ([1]; 1.5 h, read-out: cm.mito.90min POD): 100 µM
minimal effective concentration ([1]; 1.5 h, read-out: cm.tc.90min POD): 100 µM
minimal effective concentration ([1]; 24 h, read-out: cm.cam.24hrs POD): 100 µM
minimal effective concentration ([1]; 24 h, read-out: cm.mii.24hrs POD): 100 µM
minimal effective concentration ([1]; 24 h, read-out: cm.mito.24hrs POD): 100 µM
minimal effective concentration ([1]; 24 h, read-out: cm.tc.24hrs POD): 100 µM
viability at 0.01 µM (HUVECs; [2]): 96%
activity at 0.01 µM (HUVECs; [3]): 95.2%
activity at 0.01 µM (HUVECs; [4]): 93.5%
activity at 0.01 µM (HUVECs; [5]): 100%
viability at 0.1 µM (HUVECs; [2]): 97%
activity at 0.1 µM (HUVECs; [3]): 97.2%
activity at 0.1 µM (HUVECs; [4]): 105%
activity at 0.1 µM (HUVECs; [5]): 101%
viability at 1 µM (HUVECs; [2]): 92.7%
activity at 1 µM (HUVECs; [3]): 92.1%
activity at 1 µM (HUVECs; [4]): 104%
activity at 1 µM (HUVECs; [5]): 101%
viability at 10 µM (HUVECs; [2]): 119%
activity at 10 µM (HUVECs; [3]): 118%
activity at 10 µM (HUVECs; [4]): 89.3%
activity at 10 µM (HUVECs; [5]): 92.6%
viability at 100 µM (HUVECs; [2]): 88%
activity at 100 µM (HUVECs; [3]): 87.5%
activity at 100 µM (HUVECs; [4]): 102%
activity at 100 µM (HUVECs; [5]): 94.9%
minimal effective concentration (HUVECs; 24 hr, read-out: huvec.cyto.24hr POD): 100 µM
minimal effective concentration (HUVECs; 24 hr, read-out: huvec.mito.24hr POD): 100 µM
minimal effective concentration (HUVECs; 24 hr, read-out: huvec.mitoint.24hr POD): 100 µM
minimal effective concentration (HUVECs; 24 hr, read-out: huvec.nma.24hr POD): 100 µM
viability at 0.01 µM (HUVECs; [6]): 96%
viability at 0.1 µM (HUVECs; [6]): 97.1%
viability at 1 µM (HUVECs; [6]): 92.7%
viability at 10 µM (HUVECs; [6]): 119%
viability at 100 µM (HUVECs; [6]): 88.2%
minimal effective concentration (HUVECs; 24 hrs, read-out: huvec.tc.24hrs POD): 100 µM
